“Also recorded” adds a separate entry of the source. Read-outs that look alike come from different tables or passages of the source.
Tests used:
B16 melanoma = test: Survival time of mice bearing the B16 melanoma; format: in vivo, mouse (C57B1 mice); conditions: for Max. % T/C: Table IV, B16, at optimum effective daily dose; for Av. Change in wt., %: at optimum effective daily dose, B16 mice; for Max. % T/C B16 Melanoma: Table V
Procedure: This tumor was propagated in C57B1mice. Transplantation was carried out by removing tumors from donor mice bearing 14-day subcutaneous tumor growths. The tissue was fragmented to make a well-dispersed cellular suspension and diluted with Fischer's medium without serum so that one gram of tissue was suspended in 5 ml of solution. A portion (0.2 ml) of the resulting cell suspension was injected intraperitoneally into each recipient animal. All compounds were administered over a wide range of dosage levels by intraperitoneal injection, beginning 24 hours after tumor implantation, once daily for 6 consecutive days. The test compounds were injected as fine suspensions following homogenization in 2 to 3 drops of 20% aqueous Tween 80 and then made up to volume with isotonic saline. […] Mice were weighed during the course of the experiments, and the percent change in body weight from onset to termination of therapy was used as an indication of drug toxicity. Determination of the sensitivity of neoplasms to these agents was based on the prolongation of survival time afforded by the drug treatments.
^a Administered once daily for six consecutive days, beginnign 24
hours after tumor transplanation, with 5 animals being used per group.
^b Average change in body weight from onset to termination of therapy
^c % T/C = average survival time of treated/control animals ×
100. Each value represents the average of 5 animals per group.

L1210 leukemia = test: Survival time of mice bearing the L1210 leukemia; format: in vivo, mouse (CDF-1 mice); conditions: for Av. Change wt. %: L1210 mice; for response vs control in vivo at 50 mg/kg / response vs control in vivo at 100 mg/kg / response vs control in vivo at 150 mg/kg: Mus musculus, read-out: % T/C; for Antineoplastic Activity (max. % T/C from Table III): Table II, L1210 leukemia; for activity against the L1210 leukemia (in words): mouse, in vivo; for Max. % T/C L1210 Leukemia: Table V; for maximum % T/C, L1210 leukemia: comparison compounds
From the text: The ascites cell forms of the L1210 leukemia, Sarcoma 180 and P388 leukemia were propagated in CDF-1 mice. […] Mice were weighed during the course of the experiments, and the percentage change in body weight from the onset to termination of therapy was used as an indication of host toxicity.
Each value represents the average of 5 animals per group.

[1] = Alkylation of 4-(4-nitrobenzyl)pyridine, absorbance at 540 nm (modified Wheeler and Chumley); conditions: for Relative Alkylating Activity: (O.D. test sample/O.D. compound 8) × 100, pH 7.4, 37°C, 540 nm; for absorbance at 540 nm (alkylating activity): comparison compounds
Procedure: Since compounds 1-13 were conceived as prodrugs of the alkylating species (II), representative compounds of this class, viz. 1-6, 8 and 10 were tested for alkylating ability using a modification of the method of Wheeler and Chumley. This method measured the absorbance at 540 nm of the alkylated product of 4-(4-nitrobenzyl)pyridine.
^a A solution of the test sample (12 micromoles) in 1 ml of acetone,
ml of distilled water and 1 ml of TrisHCl buffer (pH 7.4) was incubated
with 4(4-nitrobenzyl) pyridine (148 micromoles in 0.4 ml of acetone) for
hr at 37°C. Following additon of 2 ml of acetone and 1.5 ml of 0.2
M NaOH, the material was extracted with 5 ml of ethyl acetate. The
absorbance was determined at 540 nm 30 seconds after the addition of the
sodium hydroxide solution. The greater the absorbance value, the greater
the degree of alkylation
^b Relative Alkylating activity = (O.D. for test sample/O.D. for […]

[2] = 50 mg/kg once daily for six days
[3] = 100 mg/kg once daily for six days
[4] = 150 mg/kg once daily for six days
[5] = 144 h, 50 mg/kg once daily for six days, L1210
[6] = 144 h, 100 mg/kg once daily for six days, L1210
[7] = 144 h, 150 mg/kg once daily for six days, L1210

## Cc1ccc(S(=O)(=O)N(C)NS(=O)(=O)c2ccccc2)cc1 [Compound 1, N'-benzenesulfonyl-N-methyl-N-(p-toluenesulfonyl)hydrazine]
B16 melanoma
  Max. % T/C: 168 % T/C
  Av. Change in wt., %: +8.5%
L1210 leukemia; [2]
  Average Survival Time of Treated Animals, days ± SE: 15.0 ± 1.4 days
  Av. Change wt. %: +2.0%
L1210 leukemia; [3]
  Average Survival Time of Treated Animals, days ± SE: 10.6 ± 0.2 days
  Av. Change wt. %: +5.4%
L1210 leukemia; [4]
  Average Survival Time of Treated Animals, days ± SE: 10.8 ± 0.5 days
  Av. Change wt. %: -2.7%
L1210 leukemia; [5]
  response vs control in vivo at 50 mg/kg: 163%
L1210 leukemia; [6]
  response vs control in vivo at 100 mg/kg: 115%
L1210 leukemia; [7]
  response vs control in vivo at 150 mg/kg: 117%
L1210 leukemia
  Antineoplastic Activity (max. % T/C from Table III): 163 % T/C
[1]
  Relative Alkylating Activity: 118

## COc1ccc(S(=O)(=O)NN(C)S(=O)(=O)c2ccc(C)cc2)cc1 [Compound 2, N'-(p-methoxybenzenesulfonyl)-N-methyl-N-(p-toluenesulfonyl)hydrazine]
B16 melanoma
  Max. % T/C: 200 % T/C
  Av. Change in wt., %: +9.1%
L1210 leukemia; [2]
  Average Survival Time of Treated Animals, days ± SE: 10.8 ± 0.6 days
  Av. Change wt. %: +7.7%
L1210 leukemia; [3]
  Average Survival Time of Treated Animals, days ± SE: 15.0 ± 2.3 days
  Av. Change wt. %: +7.8%
L1210 leukemia; [4]
  Average Survival Time of Treated Animals, days ± SE: 13.2 ± 2.2 days
  Av. Change wt. %: +2.9%
L1210 leukemia; [5]
  response vs control in vivo at 50 mg/kg: 117%
L1210 leukemia; [6]
  response vs control in vivo at 100 mg/kg: 163%
L1210 leukemia; [7]
  response vs control in vivo at 150 mg/kg: 143%
L1210 leukemia
  Antineoplastic Activity (max. % T/C from Table III): 163 % T/C
[1]
  Relative Alkylating Activity: 95

## Cc1ccc(S(=O)(=O)N(C)NS(=O)(=O)Cc2ccccc2)cc1 [Compound 6, N'-benzylsulfonyl-N-methyl-N-(p-toluenesulfonyl)hydrazine]
B16 melanoma
  Max. % T/C: 172 % T/C
  Av. Change in wt., %: -2.4%
L1210 leukemia; [2]
  Average Survival Time of Treated Animals, days ± SE: 16.0 ± 3.4 days
  Av. Change wt. %: +10.8%
L1210 leukemia; [3]
  Average Survival Time of Treated Animals, days ± SE: 12.6 ± 0.8 days
  Av. Change wt. %: +2.4%
L1210 leukemia; [4]
  Average Survival Time of Treated Animals, days ± SE: 14.6 ± 1.9 days
  Av. Change wt. %: -4.3%
L1210 leukemia; [5]
  response vs control in vivo at 50 mg/kg: 174%
L1210 leukemia; [6]
  response vs control in vivo at 100 mg/kg: 137%
L1210 leukemia; [7]
  response vs control in vivo at 150 mg/kg: 159%
L1210 leukemia
  activity against the L1210 leukemia (in words): comparable to that of compounds 1-3 and 5; also recorded: relatively high level of activity
L1210 leukemia; optimal daily dosage level
  increase in survival time of mice bearing the L1210 leukemia: 74%

## CN(NS(=O)(=O)c1ccc2ccccc2c1)S(=O)(=O)c1ccc2ccccc2c1 [Compound 11, Nmethyl-N,N'bis(2-naphthalenesulfonyl)hydrazine]
B16 melanoma
  Max. % T/C: 164 % T/C
  Av. Change in wt., %: +4.6%
L1210 leukemia; [2]
  Average Survival Time of Treated Animals, days ± SE: 11.4 ± 1.1 days
  Av. Change wt. %: +6.9%
L1210 leukemia; [3]
  Average Survival Time of Treated Animals, days ± SE: 10.2 ± 0.4 days
  Av. Change wt. %: +3.0%
L1210 leukemia; [4]
  Average Survival Time of Treated Animals, days ± SE: 14.0 ± 2.3 days
  Av. Change wt. %: -3.3%
L1210 leukemia; [5]
  response vs control in vivo at 50 mg/kg: 127%
L1210 leukemia; [6]
  response vs control in vivo at 100 mg/kg: 113%
L1210 leukemia; L1210, 144 h
  response vs control in vivo at 150 mg/kg: 156%

## Cc1ccc(S(=O)(=O)NN(C)S(=O)(=O)c2ccccc2)cc1 [Compound 14]
B16 melanoma
  Max. % T/C B16 Melanoma: 178 % T/C
L1210 leukemia
  Max. % T/C L1210 Leukemia: 153 % T/C

## COc1ccc(S(=O)(=O)NN(C)S(=O)(=O)c2ccccc2)cc1 [Compound 15]
B16 melanoma
  Max. % T/C B16 Melanoma: 191 % T/C
L1210 leukemia
  Max. % T/C L1210 Leukemia: 136 % T/C

## CN(NS(=O)(=O)c1ccc(Cl)cc1)S(=O)(=O)c1ccccc1 [Compound 16]
B16 melanoma
  Max. % T/C B16 Melanoma: 148 % T/C
L1210 leukemia
  Max. % T/C L1210 Leukemia: 122 % T/C

## Cc1ccc(S(=O)(=O)N(C)NS(=O)(=O)c2ccc(Br)cc2)cc1 [Compound 20, N'-(p-bromobenzenesulfonyl)-N-methyl-N-(p-toluenesulfonyl)hydrazine]
B16 melanoma
  Max. % T/C B16 Melanoma: 161 % T/C
L1210 leukemia
  Max. % T/C L1210 Leukemia: 169 % T/C

## COc1ccc(S(=O)(=O)N(C)NS(=O)(=O)c2ccccc2)cc1 [Compound 23]
B16 melanoma
  Max. % T/C B16 Melanoma: 151 % T/C
L1210 leukemia
  Max. % T/C L1210 Leukemia: 178 % T/C

## COc1ccc(S(=O)(=O)N(C)NS(=O)(=O)c2ccc(Br)cc2)cc1 [Compound 25]
B16 melanoma
  Max. % T/C B16 Melanoma: 205 % T/C
L1210 leukemia
  Max. % T/C L1210 Leukemia: 134 % T/C

## COc1ccc(S(=O)(=O)N(C)NS(=O)(=O)Cc2ccccc2)cc1 [Compound 28]
B16 melanoma
  Max. % T/C B16 Melanoma: 160 % T/C
L1210 leukemia
  Max. % T/C L1210 Leukemia: 152 % T/C

## COc1ccc(S(=O)(=O)N(C)NS(C)(=O)=O)cc1 [Compound 29]
B16 melanoma
  Max. % T/C B16 Melanoma: 204 % T/C
L1210 leukemia
  Max. % T/C L1210 Leukemia: 274 % T/C
  activity against the L1210 leukemia (in words): highest increases in survival time

## CN(NS(=O)(=O)c1ccccc1)S(=O)(=O)c1ccc(Cl)cc1 [Compound 31, N'-benzenesulfonyl-N-(p-chlorobenzenesulfonyl)-N-methylhydrazine]
B16 melanoma
  Max. % T/C B16 Melanoma: 146 % T/C
L1210 leukemia
  Max. % T/C L1210 Leukemia: 111 % T/C

## COc1ccc(S(=O)(=O)NN(C)S(=O)(=O)c2ccc(Cl)cc2)cc1 [Compound 32, N-(p-chlorobenzenesulfonyl)-N'-(p-methoxybenzenesulfonyl)-N-methylhydrazine]
B16 melanoma
  Max. % T/C B16 Melanoma: 153 % T/C
L1210 leukemia
  Max. % T/C L1210 Leukemia: 130 % T/C

## CN(NS(=O)(=O)c1ccc2ccccc2c1)S(=O)(=O)c1ccc(Cl)cc1 [Compound 33, N-(p-chlorobenzenesulfonyl)-N-methyl-N'-(2-naphthalenesulfonyl)hydrazine]
B16 melanoma
  Max. % T/C B16 Melanoma: 153 % T/C
L1210 leukemia
  Max. % T/C L1210 Leukemia: 109 % T/C

## CN(NS(C)(=O)=O)S(=O)(=O)c1ccc(Cl)cc1 [Compound 35, N-(p-chlorobenzenesulfonyl)-N'-methanesulfonyl-N-methylhydrazine]
B16 melanoma
  Max. % T/C B16 Melanoma: 194 % T/C
L1210 leukemia
  Max. % T/C L1210 Leukemia: 167 % T/C

## COc1ccc(S(=O)(=O)NN(C)S(=O)(=O)c2ccc(Br)cc2)cc1 [Compound 39, N-(p-bromobenzenesulfonyl)-N'-(p-methoxybenzene-sulfonyl)-N-methylhydrazine]
B16 melanoma
  Max. % T/C B16 Melanoma: 167 % T/C
L1210 leukemia
  Max. % T/C L1210 Leukemia: 165 % T/C

## CN(NS(=O)(=O)c1ccc(Br)cc1)S(=O)(=O)c1ccc(Br)cc1 [Compound 41, N,N'-bis(p-bromobenzenesulfonyl)-N-methylhydrazine]
B16 melanoma
  Max. % T/C B16 Melanoma: 161 % T/C
L1210 leukemia
  Max. % T/C L1210 Leukemia: 183 % T/C

## CN(NS(=O)(=O)c1ccccc1)S(=O)(=O)c1ccc2ccccc2c1 [Compound 45, N'-benzenesulfonyl-N-methyl-N-(2naphthalenesulfonyl)hydrazine]
B16 melanoma
  Max. % T/C B16 Melanoma: 163 % T/C
L1210 leukemia
  Max. % T/C L1210 Leukemia: 106 % T/C

## CN(NS(=O)(=O)c1ccccc1)S(=O)(=O)Cc1ccccc1 [Compound 49, N'-benzenesulfonyl-N-benzylsulfonyl-N-methylhydrazine]
B16 melanoma
  Max. % T/C B16 Melanoma: 208 % T/C
L1210 leukemia
  Max. % T/C L1210 Leukemia: 185 % T/C

## Cc1ccc(S(=O)(=O)NN(C)S(=O)(=O)Cc2ccccc2)cc1 [Compound 50]
B16 melanoma
  Max. % T/C B16 Melanoma: 206 % T/C
L1210 leukemia
  Max. % T/C L1210 Leukemia: 144 % T/C

## CN(NS(=O)(=O)c1ccc(Cl)cc1)S(=O)(=O)Cc1ccccc1 [Compound 52]
B16 melanoma
  Max. % T/C B16 Melanoma: 184 % T/C
L1210 leukemia
  Max. % T/C L1210 Leukemia: 128 % T/C

## Cc1ccc(S(=O)(=O)NN(C)S(=O)(=O)c2ccc(I)cc2)cc1 [Compound 59]
B16 melanoma
  Max. % T/C B16 Melanoma: 176 % T/C
L1210 leukemia
  Max. % T/C L1210 Leukemia: 123 % T/C

## O=S(=O)(NNS(=O)(=O)c1ccccc1)c1ccccc1 [N,N'-bis(benzenesulfonyl )hydrazine, reference compound]
L1210 leukemia
  maximum % T/C, L1210 leukemia: 101 % T/C
  activity against the L1210 leukemia (in words): inactive against the L1210 leukemia
L1210 leukemia; listed as N,N'-bis(benzenesulfonyl)hydrazine
  activity against the L1210 leukemia (in words): inactivity
[1]
  alkylating activity / absorbance (in words): negligible alkylating activity
  absorbance at 540 nm (alkylating activity): 0

## CN(NC(=O)c1ccccc1)C(=O)c1ccccc1 [N,N'-dibenzoyl-N-methylhydrazine, reference compound]
L1210 leukemia
  maximum % T/C, L1210 leukemia: 97 % T/C
  activity against the L1210 leukemia (in words): inactive against the L1210 leukemia
[1]
  alkylating activity / absorbance (in words): negligible alkylating activity
  absorbance at 540 nm (alkylating activity): 10

Reference: patent publication US4892887A, “N,N'-bis(sulfonyl)hydrazines having antineoplastic activity” (Yale University, priority 1988, dated 1990)
